Each compound was assayed against T1, PDE4D5 (Homo sapiens, UniProt Q08499) (assay: PDE assay, [3H]cAMP hydrolysis by HEK-PDE4D5 cell lysate cytosol fraction). Conditions: 30 μM; mean % increase in counts over basal activity.
T1 construct: stably expressed the full-length human PDE4D5, PDE4B1 and PDE4A4 long isoforms; made in house
T1 sequence (Q08499 1-745 isoform Q08499-6): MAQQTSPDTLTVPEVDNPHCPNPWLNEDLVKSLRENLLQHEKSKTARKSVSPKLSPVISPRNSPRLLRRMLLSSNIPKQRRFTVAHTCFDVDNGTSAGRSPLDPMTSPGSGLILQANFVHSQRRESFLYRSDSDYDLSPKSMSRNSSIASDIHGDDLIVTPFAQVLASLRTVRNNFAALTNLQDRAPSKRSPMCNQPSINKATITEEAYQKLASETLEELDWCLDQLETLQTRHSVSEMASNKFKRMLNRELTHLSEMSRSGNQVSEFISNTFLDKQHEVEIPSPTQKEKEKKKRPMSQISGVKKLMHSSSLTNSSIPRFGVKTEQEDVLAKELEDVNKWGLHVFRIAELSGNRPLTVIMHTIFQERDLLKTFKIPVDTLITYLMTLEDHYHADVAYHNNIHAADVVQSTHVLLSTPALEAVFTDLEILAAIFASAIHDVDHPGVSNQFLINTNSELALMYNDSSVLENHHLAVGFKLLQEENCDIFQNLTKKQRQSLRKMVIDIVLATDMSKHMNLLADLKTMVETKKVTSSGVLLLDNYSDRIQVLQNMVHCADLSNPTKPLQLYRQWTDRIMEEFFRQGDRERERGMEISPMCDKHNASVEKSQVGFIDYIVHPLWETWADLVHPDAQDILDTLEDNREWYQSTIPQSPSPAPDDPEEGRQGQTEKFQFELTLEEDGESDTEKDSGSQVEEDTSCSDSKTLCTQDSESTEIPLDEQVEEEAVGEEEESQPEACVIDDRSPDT
Format: biochemical
Method: HEK 293 cells were transfected with pDEST™ PDE4 expression vectors using Lipofectamine LTX/Plus reagent (Invitrogen) as outlined by the manufacturer and clonal isolates expanded to obtain cell lines that stably expressed the full-length human PDE4D5, PDE4B1 and PDE4A4 long isoforms and the full length human PDE4B2 short isoform. These were called the HEK-PDE4D5, HEK-PDE4B1, HEK-PDE4A4 and HEK-PDE4B2 cell lines, respectively.
HEK-PDE4D5 cells were seeded out in 100 mm plates and incubated at 37° C. in an atmosphere of 5% CO2, 95% air. Cell lysates were prepared using KHEM buffer [50 mM KCl, 10 mM EGTA, 50 mM HEPES (pH 7.2), 1.92 mM MgCl2].
To prepare the cell lysates, the 100 mm plates containing the cells were placed on ice and washed with ice-cold PBS (phosphate buffered saline, pH 7.4). KHEM buffer (500 μl) was added to the cells. Cells were then scraped off the plate and triturated using a needle (BD Microlance™ 0.8, 40 mm). The lysed cells were then centrifuged at 2000 rpm for 10 minutes to remove cell debris and the supernatant (cell lysate containing recombinant PDE4D5) was transferred to a fresh tube and kept on ice.
The cell lysate containing recombinant PDE4D5 was transferred into a centrifuge tube and placed into an ultracentrifuge (BECKMAN COULTER) and spun at high speed (100,000 g) for 30 minutes at 4° C. The cytosol fraction was then collected and its protein amount determined using a BCA protein assay.
PDE assays were performed in thin walled V-bottomed 96-well plates. The assays were performed at a final concentration of 10 mM Tris/5 mM MgCl2 plus PDE4D5 cell lysate cytosol fraction, containing over-expressed PDE4D5, with and without test compound. The lysate/compound mix were incubated together for 15 min at room temperature on an orbital shaker prior to addition of [^3H] cAMP (final concentration 1 μM [^3H] cAMP; Perkin Elmer) to a final volume of 50 μl per reaction. The reactions were then incubated for 10 minutes at 30° C., terminated by heating for 2 min at 95° C. and allowed to cool. Snake venom (12.5 μl of 1 mg/ml; Crotalus atrox, Sigma) was then added and the plates were agitated and incubated for a further 15 minutes at 30° C. Dowex ion exchange resin (Sigma, chloride form, 200-400 mesh; 200 μl; prepared as a 1:1 Dowex: water stock, thoroughly re-suspended and diluted 2:1 with ethanol) was then added to each well and the plates incubated for 15 min at room temperature on an orbital shaker ensuring sufficient agitation for resin suspension (550 RPM). The reaction mixture was then transferred to a 96 well filter plate (Millipore; […] pore size) and filtered into a receiving 96-well plate to remove the dowex suspension. 30 μL of the filtered solution was then transferred to the wells of an Opti-plate (Perkin Elmer) 96 well assay plate and 120 μl of Microscint 40 scintillation fluid was added. The plate was then placed on an orbital shaker for 10 min at high speed (900 RPM) to mix the sample with scintillation fluid prior to quantitation using a plate based scintillation counter (Top-Count).
The % increase in counts in the presence of test compound at a particular concentration indicates the % increase in enzyme activity at that concentration.
An activation at 30 µM of 32.2% was found for `CCn1nc(-c2ccc(Cl)c(F)c2)nc1CC(=O)NCc1cccc2cn[nH]c12` [Example 4, 2-[3-(4-Chloro-3-fluorophenyl)-1-ethyl-1H-1,2,4-triazol-5-yl]-N-[(1H-indazol-7-yl)methyl]acetamide] in this work.
An activation at 30 µM of 56.1% was found for `CCn1nc(-c2ccc(Cl)c(F)c2)nc1CC(=O)NCc1cc(Cl)cc(Cl)c1` [Example 5, 2-[3-(4-Chloro-3-fluorophenyl)-1-ethyl-1H-1,2,4-triazol-5-yl]-N-(3,5-dichlorobenzyl)acetamide] in this work.
An activation at 30 µM of 38.5% was found for `CCn1nc(-c2ccc(Cl)c(F)c2)nc1CC(=O)Nc1cc(C)on1` [Example 6, 2-[3-(4-Chloro-3-fluorophenyl)-1-ethyl-1H-1,2,4-triazol-5-yl]-N-(5-methyl-1,2-oxazol-3-yl)acetamide] in this work.
An activation at 30 µM of 94.1% was found for `CCn1nc(-c2ccc(Cl)c(F)c2)nc1CC(=O)NCc1ccc2[nH]ncc2c1` [Example 7, 2-[3-(4-Chloro-3-fluorophenyl)-1-ethyl-1H-1,2,4-triazol-5-yl]-N-[(1H-indazol-5-yl)methyl]acetamide] in this work.
An activation at 30 µM of 49.6% was found for `CCn1nc(-c2ccc(Cl)c(F)c2)nc1CC(=O)Nc1cnccn1` [Example 8, 2-[3-(4-Chloro-3-fluorophenyl)-1-ethyl-1H-1,2,4-triazol-5-yl]-N-(pyrazin-2-yl)acetamide] in this work.
An activation at 30 µM of 55.6% was found for `CCn1nc(-c2ccc(Cl)c(F)c2)nc1CC(=O)NCc1ccc2[nH]c(=O)[nH]c2c1` [Example 9, 2-[3-(4-Chloro-3-fluorophenyl)-1-ethyl-1H-1,2,4-triazol-5-yl]-N-[(2-oxo-2,3-dihydro-1H-benzo[d]imidazol-5-yl)methyl]acetamide] in this work.
An activation at 30 µM of 136% was found for `CCn1nc(-c2ccc(Cl)c(F)c2)nc1CC(=O)NCc1cc(C)cc(Cl)c1` [Example 10, 2-[3-(4-Chloro-3-fluorophenyl)-1-ethyl-1H-1,2,4-triazol-5-yl]-N-[(3-chloro-5-methylphenyl)methyl]acetamide] in this work.
An activation at 30 µM of 52.8% was found for `CCn1nc(-c2ccc(Cl)c(F)c2)nc1CC(=O)NCc1cc(C)cc(F)c1` [Example 11, 2-[3-(4-Chloro-3-fluorophenyl)-1-ethyl-1H-1,2,4-triazol-5-yl]-N-[(3-fluoro-5-methylphenyl)methyl]acetamide] in this work.
An activation at 30 µM of 71.6% was found for `CCn1nc(-c2ccc(Cl)c(F)c2)nc1CC(=O)NCc1cc(C)cc(C)c1` [Example 12, 2-[3-(4-Chloro-3-fluorophenyl)-1-ethyl-1H-1,2,4-triazol-5-yl]-N-[(3,5-dimethylphenyl)methyl]acetamide] in this work.
An activation at 30 µM of 28.4% was found for `CCn1nc(-c2ccc(Cl)c(F)c2)nc1CC(=O)NCc1cccc(F)c1F` [Example 13, 2-[3-(4-Chloro-3-fluorophenyl)-1-ethyl-1H-1,2,4-triazol-5-yl]-N-[(2,3-difluorophenyl)methyl]acetamide] in this work.
An activation at 30 µM of 142% was found for `CCOc1cccc(CNC(=O)Cc2nc(-c3ccc(Cl)c(F)c3)nn2CC)c1` [Example 14, 2-[3-(4-Chloro-3-fluorophenyl)-1-ethyl-1H-1,2,4-triazol-5-yl]-N-[(3-ethoxyphenyl)methyl]acetamide] in this work.
An activation at 30 µM of 61.5% was found for `CCn1nc(-c2ccc(Cl)c(F)c2)nc1CC(=O)NCc1cc(OC)cc(OC)c1` [Example 15, 2-[3-(4-Chloro-3-fluorophenyl)-1-ethyl-1H-1,2,4-triazol-5-yl]-N-[(3,5-dimethoxyphenyl)methyl]acetamide] in this work.
An activation at 30 µM of 44.7% was found for `CCn1nc(-c2ccc(Cl)c(F)c2)nc1CC(=O)NCc1ccc(OC)cc1` [Example 16, 2-[3-(4-Chloro-3-fluorophenyl)-1-ethyl-1H-1,2,4-triazol-5-yl]-N-[(4-methoxyphenyl)methyl]acetamide] in this work.
An activation at 30 µM of 26.8% was found for `CCn1nc(-c2ccc(Cl)c(F)c2)nc1CC(=O)NCc1ccc(OC)nc1` [Example 17, 2-[3-(4-Chloro-3-fluorophenyl)-1-ethyl-1H-1,2,4-triazol-5-yl]-N-[(6-methoxypyridin-3-yl)methyl]acetamide] in this work.
An activation at 30 µM of 77.8% was found for `Cn1nc(-c2ccc(Cl)c(F)c2)nc1CC(=O)NCc1cc(Cl)cc(Cl)c1` [Example 18, 2-[3-(4-Chloro-3-fluorophenyl)-1-methyl-1H-1,2,4-triazol-5-yl]-N-[(3,5-dichlorophenyl)methyl]acetamide] in this work.
An activation at 30 µM of 87.8% was found for `COc1cccc(CNC(=O)Cc2nc(-c3ccc(Cl)c(F)c3)nn2C)c1` [Example 19, 2-[3-(4-Chloro-3-fluorophenyl)-1-methyl-1H-1,2,4-triazol-5-yl]-N-[(3-methoxyphenyl)methyl]acetamide] in this work.
An activation at 30 µM of 78.6% was found for `Cn1nc(-c2ccc(Cl)c(F)c2)nc1CC(=O)NCc1cccc(F)c1` [Example 20, 2-[3-(4-Chloro-3-fluorophenyl)-1-methyl-1H-1,2,4-triazol-5-yl]-N-[(3-fluorophenyl)methyl]acetamide] in this work.
An activation at 30 µM of 60.8% was found for `Cn1nc(-c2ccc(Cl)c(F)c2)nc1CC(=O)NCc1ccc2[nH]ncc2c1` [Example 21, 2-[3-(4-Chloro-3-fluorophenyl)-1-methyl-1H-1,2,4-triazol-5-yl]-N-[(1H-indazol-5-yl)methyl]acetamide] in this work.
An activation at 30 µM of 53.8% was found for `O=C(Cc1nc(-c2ccc(Cl)c(F)c2)nn1CCO)NCc1cc(Cl)cc(Cl)c1` [Example 23, 2-[3-(4-Chloro-3-fluorophenyl)-1-(2-hydroxyethyl)-1H-1,2,4-triazol-5-yl]-N-[(3,5-dichlorophenyl)methyl]acetamide] in this work.
An activation at 30 µM of 72.2% was found for `CCn1nc(-c2ccc(Cl)c(F)c2)nc1C(C)C(=O)NCc1cccc(F)c1` (centres unmarked) [Example 24, 2-[3-(4-Chloro-3-fluorophenyl)-1-ethyl-1H-1,2,4-triazol-5-yl]-N-[(3-fluorophenyl)methyl]propanamide] in this work.
An activation at 30 µM of 87.5% was found for `Cc1cc(CNC(=O)Cc2nc(-c3ccc(Cl)c(F)c3)nn2CC2CC2)cc(C)n1` [Example 26, 2-[3-(4-Chloro-3-fluorophenyl)-1-(cyclopropylmethyl)-1H-1,2,4-triazol-5-yl]-N-[(2,6-dimethylpyridin-4-yl)methyl]acetamide] in this work.
An activation at 30 µM of 106% was found for `O=C(Cc1nc(-c2ccc(Cl)c(F)c2)nn1CC1CC1)NCc1ccc2[nH]ncc2c1` [Example 27, 2-[3-(4-Chloro-3-fluorophenyl)-1-(cyclopropylmethyl)-1H-1,2,4-triazol-5-yl]-N-[(1H-indazol-5-yl)methyl]acetamide] in this work.
An activation at 30 µM of 46.3% was found for `CCn1nc(-c2ccc(OC(F)(F)F)cc2)nc1CC(=O)NCc1cc(Cl)cc(Cl)c1` [Example 28, N-[(3,5-Dichlorophenyl)methyl]-2-{1-ethyl-3-[4-(trifluoromethoxy)phenyl]-1H-1,2,4-triazol-5-yl}acetamide] in this work.
An activation at 30 µM of 45.9% was found for `CCn1nc(-c2ccc(C#N)cc2)nc1CC(=O)NCc1cc(Cl)cc(Cl)c1` [Example 30, 2-[3-(4-Cyanophenyl)-1-ethyl-1H-1,2,4-triazol-5-yl]-N-[(3,5-dichlorophenyl)methyl]acetamide] in this work.
An activation at 30 µM of 42.8% was found for `CCOc1cc(-c2nc(CC(=O)NCc3cc(Cl)cc(Cl)c3)n(CC)n2)ccc1Cl` [Example 32, 2-[3-(4-Chloro-3-ethoxyphenyl)-1-ethyl-1H-1,2,4-triazol-5-yl]-N-[(3,5-dichlorophenyl)methyl]acetamide] in this work.
An activation at 30 µM of 28.5% was found for `CCn1nc(-c2ccc(Cl)c(OC(C)C)c2)nc1CC(=O)NCc1cc(C)nc(C)c1` [Example 35, 2-[3-(4-Chloro-3-isopropyloxyphenyl)-1-ethyl-1H-1,2,4-triazol-5-yl]-N-[(2,6-dimethylpyridin-4-yl)methyl]acetamide] in this work.
An activation at 30 µM of 33% was found for `CCn1nc(-c2ccc(Cl)c(OC(C)C)c2)nc1CC(=O)N[C@H]1CCc2ccccc21` [Example 36, 2-[3-(4-Chloro-3-isopropyloxyphenyl)-1-ethyl-1H-1,2,4-triazol-5-yl]-N-[(1S)-2,3-dihydro-1H-inden-1-yl]acetamide] in this work.
An activation at 30 µM of 40.2% was found for `CCn1nc(-c2ccc(Cl)c(OC(C)C)c2)nc1CC(=O)NCc1cccc(C#N)c1` [Example 37, 2-[3-(4-Chloro-3-isopropyloxyphenyl)-1-ethyl-1H-1,2,4-triazol-5-yl]-N-[(3-cyanophenyl)methyl]acetamide] in this work.

Same assay, conditions: dose response, FIG. 1
For `CCn1nc(-c2ccc(Cl)c(F)c2)nc1CC(=O)NCc1cc(Cl)cc(Cl)c1` [Example 5, 2-[3-(4-Chloro-3-fluorophenyl)-1-ethyl-1H-1,2,4-triazol-5-yl]-N-(3,5-dichlorobenzyl)acetamide], the “activation of PDE4 long form PDE4D5 (FIG. 1)” value was “dose-dependent activation”.
